Literature values, collected in US11202800B1, “Methods for treating emotional cognitive disconnect” (priority 2013, dated 2021).

What was measured:
[1] = tested on: Ca^2+ plus calmodulin-stimulated reactions; conditions: in rats
[2] = tested on: Ca^2+ plus calmodulin dependent phosphorylation of synapsin I; conditions: in rats

[Mg+2] [Mg^2+, magnesium]
Mg^2+ concentration range in which Ca^2+ plus calmodulin-stimulated reactions are maximally active [1]: 30 to 50 mM
Mg^2+ concentration above which Ca^2+ plus calmodulin dependent phosphorylation of synapsin I is progressively inhibited [2]: above 5 mM
